Experimental findings from ChEMBL document CHEMBL6134854, “Development of Hydrazide-Based HDAC6 Selective Inhibitors for Treating NLRP3 Inflammasome-Related Diseases” (J Med Chem, 2025) are described below.

Data set [1] has as its target T1, Polyamine deacetylase HDAC10 (Homo sapiens, UniProt Q969S8).
T1 sequence (Q969S8 whole entry): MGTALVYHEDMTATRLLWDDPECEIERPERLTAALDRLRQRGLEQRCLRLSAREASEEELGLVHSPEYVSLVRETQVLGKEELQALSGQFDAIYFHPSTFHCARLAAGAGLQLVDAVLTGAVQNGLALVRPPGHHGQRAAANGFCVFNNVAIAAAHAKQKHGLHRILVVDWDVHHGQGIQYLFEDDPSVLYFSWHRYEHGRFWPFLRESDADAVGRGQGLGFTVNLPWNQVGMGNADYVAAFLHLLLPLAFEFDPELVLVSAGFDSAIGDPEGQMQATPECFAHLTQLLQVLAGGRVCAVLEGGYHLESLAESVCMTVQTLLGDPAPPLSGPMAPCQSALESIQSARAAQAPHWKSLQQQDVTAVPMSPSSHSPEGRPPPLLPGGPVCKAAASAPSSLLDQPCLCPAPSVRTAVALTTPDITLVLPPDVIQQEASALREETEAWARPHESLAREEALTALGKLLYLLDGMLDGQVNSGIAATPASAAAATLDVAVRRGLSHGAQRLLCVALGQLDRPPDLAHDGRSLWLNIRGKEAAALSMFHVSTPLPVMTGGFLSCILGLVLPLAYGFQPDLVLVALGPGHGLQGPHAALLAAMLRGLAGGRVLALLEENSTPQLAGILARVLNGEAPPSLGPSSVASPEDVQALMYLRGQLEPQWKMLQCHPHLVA
The experiment in a line: Inhibition of recombinant HDAC10 (unknown origin) using Ac-Gly-Ala-Lys(AMC) as substrate preincubated for 1 hrs followed by substrate addition and measured after 2 hrs by fluorescence based microplate reader analysis.

For data set [2], the system named is L02. Briefly: Cytotoxicity against HL7702 cells assessed as effect on cell viability at 10 uM incubated for 48 hrs by resazurin reagent based assay. It counts as toxicity. As to conditions: human, l02, 48 h.
Data set [3] relates to J774.A1. Briefly: cells. As to conditions: Mus musculus, J774.A1, 48 h.
A short description of data set [4]: in vivo. As to conditions: male, ICR, mouse, iv, 5 mg/kg.
Data set [5] is described as follows: in vivo. As to conditions: male, ICR, mouse, iv, 5 mg/kg. This is another data set of the same source.
The target in data set [6] is Histone deacetylase 1 (Homo sapiens, UniProt Q13547). Briefly: Inhibition of recombinant HDAC1 (unknown origin) using Boc-Lys (acetyl)-AMC as substrate preincubated for 1 hrs followed by substrate addition and measured after 2 hrs by fluorescence based microplate reader analysis.
Sequence of Histone deacetylase 1 (Q13547 whole entry): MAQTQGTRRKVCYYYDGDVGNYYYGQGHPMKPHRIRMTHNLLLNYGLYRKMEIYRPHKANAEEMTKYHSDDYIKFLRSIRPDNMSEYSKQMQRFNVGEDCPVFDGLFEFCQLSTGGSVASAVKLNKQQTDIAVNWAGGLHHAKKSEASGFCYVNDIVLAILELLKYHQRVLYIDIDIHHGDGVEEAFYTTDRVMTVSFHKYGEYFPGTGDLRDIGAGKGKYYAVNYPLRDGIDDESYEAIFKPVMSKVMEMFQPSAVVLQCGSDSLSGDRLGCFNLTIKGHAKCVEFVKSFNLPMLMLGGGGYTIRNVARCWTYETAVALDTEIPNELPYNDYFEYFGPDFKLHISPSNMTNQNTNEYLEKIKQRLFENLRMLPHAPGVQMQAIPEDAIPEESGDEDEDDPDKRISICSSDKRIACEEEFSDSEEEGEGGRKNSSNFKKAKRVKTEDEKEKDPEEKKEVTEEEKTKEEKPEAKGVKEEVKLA
Data set [7] has as its target Histone deacetylase 2 (Homo sapiens, UniProt Q92769). Briefly: Inhibition of recombinant HDAC2 (unknown origin) using Boc-Lys (acetyl)-AMC as substrate preincubated for 1 hrs followed by substrate addition and measured after 2 hrs by fluorescence based microplate reader analysis.
Data set [8] deals with Histone deacetylase 3 (Homo sapiens, UniProt O15379). The experiment in a line: Inhibition of recombinant HDAC3 (unknown origin) using Boc-Lys (acetyl)-AMC as substrate preincubated for 1 hrs followed by substrate addition and measured after 2 hrs by fluorescence based microplate reader analysis.
Sequence of Histone deacetylase 3 (O15379 whole entry): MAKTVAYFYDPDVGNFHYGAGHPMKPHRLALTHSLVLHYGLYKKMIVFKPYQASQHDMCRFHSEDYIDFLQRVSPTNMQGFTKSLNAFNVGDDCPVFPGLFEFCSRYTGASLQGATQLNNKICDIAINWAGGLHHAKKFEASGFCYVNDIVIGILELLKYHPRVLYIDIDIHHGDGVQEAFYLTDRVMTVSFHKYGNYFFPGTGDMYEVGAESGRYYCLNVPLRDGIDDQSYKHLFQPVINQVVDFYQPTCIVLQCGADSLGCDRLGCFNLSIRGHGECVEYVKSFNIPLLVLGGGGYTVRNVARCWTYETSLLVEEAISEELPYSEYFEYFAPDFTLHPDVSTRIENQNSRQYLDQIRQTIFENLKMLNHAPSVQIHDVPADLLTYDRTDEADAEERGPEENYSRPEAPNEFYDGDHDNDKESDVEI
In data set [9] the target is Histone deacetylase 4 (Homo sapiens, UniProt P56524). The experiment in a line: Inhibition of recombinant HDAC4 (unknown origin) using Boc-Lys (trifluoroacetyl)AMC as substrate preincubated for 1 hrs followed by substrate addition and measured after 2 hrs by fluorescence based microplate reader analysis.
Sequence of Histone deacetylase 4 (P56524 whole entry): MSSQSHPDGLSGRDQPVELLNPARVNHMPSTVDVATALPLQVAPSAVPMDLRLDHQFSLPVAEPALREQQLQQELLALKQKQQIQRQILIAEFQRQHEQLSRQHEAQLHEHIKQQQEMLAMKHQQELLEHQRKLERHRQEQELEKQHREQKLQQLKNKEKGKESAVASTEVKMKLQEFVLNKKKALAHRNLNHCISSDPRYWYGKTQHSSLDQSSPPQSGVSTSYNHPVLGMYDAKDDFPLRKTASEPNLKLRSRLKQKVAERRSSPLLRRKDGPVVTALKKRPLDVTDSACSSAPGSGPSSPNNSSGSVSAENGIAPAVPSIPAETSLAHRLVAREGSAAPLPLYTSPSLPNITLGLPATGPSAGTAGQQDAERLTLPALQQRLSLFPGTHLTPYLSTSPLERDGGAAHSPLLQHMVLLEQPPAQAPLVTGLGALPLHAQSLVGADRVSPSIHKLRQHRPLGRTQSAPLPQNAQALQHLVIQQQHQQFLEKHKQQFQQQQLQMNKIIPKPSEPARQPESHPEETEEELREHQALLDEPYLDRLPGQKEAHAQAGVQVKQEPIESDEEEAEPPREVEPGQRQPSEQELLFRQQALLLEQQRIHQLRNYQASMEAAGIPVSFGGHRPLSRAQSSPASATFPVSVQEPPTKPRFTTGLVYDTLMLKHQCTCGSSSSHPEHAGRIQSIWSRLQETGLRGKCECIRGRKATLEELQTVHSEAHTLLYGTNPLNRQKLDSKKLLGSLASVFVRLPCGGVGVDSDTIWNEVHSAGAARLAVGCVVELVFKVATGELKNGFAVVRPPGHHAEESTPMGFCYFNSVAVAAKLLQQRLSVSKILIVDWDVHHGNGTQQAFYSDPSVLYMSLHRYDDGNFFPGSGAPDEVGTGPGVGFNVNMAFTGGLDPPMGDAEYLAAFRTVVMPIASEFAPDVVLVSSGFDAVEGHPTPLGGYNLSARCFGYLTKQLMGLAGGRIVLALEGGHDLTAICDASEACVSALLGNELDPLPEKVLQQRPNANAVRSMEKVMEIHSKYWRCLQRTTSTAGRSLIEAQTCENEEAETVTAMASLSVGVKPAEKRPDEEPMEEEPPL
The target in data set [10] is Histone deacetylase 5 (Homo sapiens, UniProt Q9UQL6). Briefly: Inhibition of recombinant HDAC5 (unknown origin) using Boc-Lys (trifluoroacetyl)AMC as substrate preincubated for 1 hrs followed by substrate addition and measured after 2 hrs by fluorescence based microplate reader analysis.
Sequence of Histone deacetylase 5 (Q9UQL6 whole entry): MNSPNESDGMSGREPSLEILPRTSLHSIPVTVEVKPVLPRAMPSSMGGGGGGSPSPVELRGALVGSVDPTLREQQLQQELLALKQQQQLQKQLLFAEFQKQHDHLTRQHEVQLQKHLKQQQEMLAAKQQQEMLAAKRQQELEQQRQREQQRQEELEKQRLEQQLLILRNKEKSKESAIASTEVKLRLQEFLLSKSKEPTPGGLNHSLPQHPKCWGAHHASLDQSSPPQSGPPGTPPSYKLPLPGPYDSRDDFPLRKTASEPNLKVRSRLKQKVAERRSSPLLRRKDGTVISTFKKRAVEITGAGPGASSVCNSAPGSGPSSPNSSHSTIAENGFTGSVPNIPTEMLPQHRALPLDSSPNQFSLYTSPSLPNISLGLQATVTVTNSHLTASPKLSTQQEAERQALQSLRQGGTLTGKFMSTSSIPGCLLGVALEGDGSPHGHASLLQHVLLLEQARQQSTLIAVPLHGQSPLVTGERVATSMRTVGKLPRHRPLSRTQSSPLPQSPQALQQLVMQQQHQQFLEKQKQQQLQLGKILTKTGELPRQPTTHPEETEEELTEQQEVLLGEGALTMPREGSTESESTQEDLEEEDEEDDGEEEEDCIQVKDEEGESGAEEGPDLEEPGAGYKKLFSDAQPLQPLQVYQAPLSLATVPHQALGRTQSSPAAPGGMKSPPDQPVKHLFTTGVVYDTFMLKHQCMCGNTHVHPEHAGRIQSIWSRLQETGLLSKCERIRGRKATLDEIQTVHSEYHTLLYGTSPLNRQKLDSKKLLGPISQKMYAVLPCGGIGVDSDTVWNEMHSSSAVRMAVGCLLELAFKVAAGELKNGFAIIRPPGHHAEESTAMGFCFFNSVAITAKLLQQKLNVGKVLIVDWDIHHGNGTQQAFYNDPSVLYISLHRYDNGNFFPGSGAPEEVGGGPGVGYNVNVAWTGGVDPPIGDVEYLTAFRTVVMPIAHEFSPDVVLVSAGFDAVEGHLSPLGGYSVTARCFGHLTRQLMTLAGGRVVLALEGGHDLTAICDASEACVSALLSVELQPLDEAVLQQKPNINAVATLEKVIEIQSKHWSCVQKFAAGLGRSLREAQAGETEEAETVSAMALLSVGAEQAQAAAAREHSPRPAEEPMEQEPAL
The target in data set [11] is T2, Histone deacetylase 7 (Homo sapiens, UniProt Q8WUI4).
T2 sequence (Q8WUI4 whole entry): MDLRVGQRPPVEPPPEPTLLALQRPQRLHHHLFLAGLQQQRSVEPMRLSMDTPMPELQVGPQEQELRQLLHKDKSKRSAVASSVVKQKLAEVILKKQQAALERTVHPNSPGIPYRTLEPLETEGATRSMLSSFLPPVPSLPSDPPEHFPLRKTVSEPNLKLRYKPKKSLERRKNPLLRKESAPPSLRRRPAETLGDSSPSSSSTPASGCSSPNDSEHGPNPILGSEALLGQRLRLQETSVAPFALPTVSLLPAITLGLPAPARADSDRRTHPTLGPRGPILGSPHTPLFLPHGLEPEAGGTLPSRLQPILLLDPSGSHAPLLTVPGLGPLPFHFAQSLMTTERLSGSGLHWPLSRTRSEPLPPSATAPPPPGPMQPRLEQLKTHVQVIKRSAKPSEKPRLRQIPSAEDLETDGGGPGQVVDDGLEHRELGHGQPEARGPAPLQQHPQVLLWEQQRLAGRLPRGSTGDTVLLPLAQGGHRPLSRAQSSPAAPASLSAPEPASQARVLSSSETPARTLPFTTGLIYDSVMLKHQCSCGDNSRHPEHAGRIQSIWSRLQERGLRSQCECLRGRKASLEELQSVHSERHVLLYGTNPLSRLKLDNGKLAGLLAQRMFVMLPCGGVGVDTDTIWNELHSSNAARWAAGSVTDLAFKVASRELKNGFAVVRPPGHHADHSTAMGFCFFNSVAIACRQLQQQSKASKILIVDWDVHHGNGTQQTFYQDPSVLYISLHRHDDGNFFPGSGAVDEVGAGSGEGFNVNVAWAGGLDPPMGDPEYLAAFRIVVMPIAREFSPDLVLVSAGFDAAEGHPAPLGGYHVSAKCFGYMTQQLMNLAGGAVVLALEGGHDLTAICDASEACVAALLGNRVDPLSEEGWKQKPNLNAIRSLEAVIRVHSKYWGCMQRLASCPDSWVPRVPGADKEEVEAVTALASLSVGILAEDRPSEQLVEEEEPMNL
The experiment in a line: Inhibition of recombinant HDAC7 (unknown origin) using Boc-Lys (trifluoroacetyl)AMC as substrate preincubated for 1 hrs followed by substrate addition and measured after 2 hrs by fluorescence based microplate reader analysis.

Data set [12] addresses T3, Histone deacetylase 8 (Homo sapiens, UniProt Q9BY41).
T3 sequence (Q9BY41 whole entry): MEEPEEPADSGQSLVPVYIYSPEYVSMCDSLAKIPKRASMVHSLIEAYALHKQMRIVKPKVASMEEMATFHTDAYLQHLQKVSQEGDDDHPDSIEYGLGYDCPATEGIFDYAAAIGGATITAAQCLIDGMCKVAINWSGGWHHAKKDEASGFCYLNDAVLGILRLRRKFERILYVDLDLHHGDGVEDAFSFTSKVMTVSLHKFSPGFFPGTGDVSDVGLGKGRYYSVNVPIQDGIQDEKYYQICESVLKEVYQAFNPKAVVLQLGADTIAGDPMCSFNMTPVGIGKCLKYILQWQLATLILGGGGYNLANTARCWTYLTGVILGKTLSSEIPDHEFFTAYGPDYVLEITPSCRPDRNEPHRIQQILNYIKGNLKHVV
The experiment in a line: Inhibition of recombinant HDAC8 (unknown origin) using Boc-Lys (trifluoroacetyl)AMC as substrate preincubated for 1 hrs followed by substrate addition and measured after 2 hrs by fluorescence based microplate reader analysis.

In data set [13] the target is Histone deacetylase 9 (Homo sapiens, UniProt Q9UKV0). The experiment in a line: Inhibition of recombinant HDAC9 (unknown origin) using Boc-Lys (trifluoroacetyl)AMC as substrate preincubated for 1 hrs followed by substrate addition and measured after 2 hrs by fluorescence based microplate reader analysis.
Sequence of Histone deacetylase 9 (Q9UKV0 whole entry): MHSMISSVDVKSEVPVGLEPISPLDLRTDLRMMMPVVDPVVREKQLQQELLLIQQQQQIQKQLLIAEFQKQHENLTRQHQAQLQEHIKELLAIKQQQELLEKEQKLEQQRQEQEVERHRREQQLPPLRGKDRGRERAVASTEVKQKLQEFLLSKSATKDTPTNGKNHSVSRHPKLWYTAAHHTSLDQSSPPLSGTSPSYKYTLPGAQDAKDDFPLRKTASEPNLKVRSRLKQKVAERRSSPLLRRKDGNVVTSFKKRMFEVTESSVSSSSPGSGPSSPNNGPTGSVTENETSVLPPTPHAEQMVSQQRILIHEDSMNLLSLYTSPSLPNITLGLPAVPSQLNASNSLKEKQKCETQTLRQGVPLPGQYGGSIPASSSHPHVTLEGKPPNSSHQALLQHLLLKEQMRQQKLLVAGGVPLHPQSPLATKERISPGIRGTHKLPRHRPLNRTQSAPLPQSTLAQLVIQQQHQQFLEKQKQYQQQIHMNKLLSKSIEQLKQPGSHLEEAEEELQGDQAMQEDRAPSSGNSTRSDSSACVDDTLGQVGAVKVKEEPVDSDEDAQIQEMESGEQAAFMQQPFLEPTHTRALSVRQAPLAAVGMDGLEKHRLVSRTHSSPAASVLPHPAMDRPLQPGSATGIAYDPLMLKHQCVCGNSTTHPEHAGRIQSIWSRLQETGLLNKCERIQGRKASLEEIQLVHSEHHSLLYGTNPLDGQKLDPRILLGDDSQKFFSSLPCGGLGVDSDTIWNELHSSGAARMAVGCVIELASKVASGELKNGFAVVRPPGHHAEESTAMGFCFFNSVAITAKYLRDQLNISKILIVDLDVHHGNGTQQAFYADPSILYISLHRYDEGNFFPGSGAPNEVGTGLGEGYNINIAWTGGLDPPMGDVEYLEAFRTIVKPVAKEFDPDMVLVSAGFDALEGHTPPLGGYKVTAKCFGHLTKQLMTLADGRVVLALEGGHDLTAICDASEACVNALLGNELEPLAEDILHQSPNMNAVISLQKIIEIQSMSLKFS
Data set [14] has as its target T4, Histone deacetylase 11 (Homo sapiens, UniProt Q96DB2).
T4 sequence (Q96DB2 whole entry): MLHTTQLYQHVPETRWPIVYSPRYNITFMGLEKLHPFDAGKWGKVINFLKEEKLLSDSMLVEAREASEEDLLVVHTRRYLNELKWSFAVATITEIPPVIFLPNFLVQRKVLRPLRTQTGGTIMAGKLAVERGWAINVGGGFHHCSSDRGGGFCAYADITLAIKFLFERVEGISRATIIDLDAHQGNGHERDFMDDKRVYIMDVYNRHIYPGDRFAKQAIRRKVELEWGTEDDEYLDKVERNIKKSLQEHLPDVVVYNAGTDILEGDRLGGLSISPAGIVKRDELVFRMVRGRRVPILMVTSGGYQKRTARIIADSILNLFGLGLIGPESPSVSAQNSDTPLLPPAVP
The experiment in a line: Inhibition of recombinant HDAC11 (unknown origin) using ETDKacyl-Kmyr as substrate preincubated for 1 hrs followed by substrate addition and measured after 2 hrs by fluorescence based microplate reader analysis.

The test system of data set [15] is L02. Briefly: Cytotoxicity against HL7702 cells assessed as effect on cell viability incubated for 48 hrs by resazurin reagent based assay. As to conditions: human, l02, 48 h. The data set is classed as toxicity. Background: The colour change of resazurin is a common sign of viable cells or microbes.

Sequence of Histone deacetylase 2 (Q92769 whole entry): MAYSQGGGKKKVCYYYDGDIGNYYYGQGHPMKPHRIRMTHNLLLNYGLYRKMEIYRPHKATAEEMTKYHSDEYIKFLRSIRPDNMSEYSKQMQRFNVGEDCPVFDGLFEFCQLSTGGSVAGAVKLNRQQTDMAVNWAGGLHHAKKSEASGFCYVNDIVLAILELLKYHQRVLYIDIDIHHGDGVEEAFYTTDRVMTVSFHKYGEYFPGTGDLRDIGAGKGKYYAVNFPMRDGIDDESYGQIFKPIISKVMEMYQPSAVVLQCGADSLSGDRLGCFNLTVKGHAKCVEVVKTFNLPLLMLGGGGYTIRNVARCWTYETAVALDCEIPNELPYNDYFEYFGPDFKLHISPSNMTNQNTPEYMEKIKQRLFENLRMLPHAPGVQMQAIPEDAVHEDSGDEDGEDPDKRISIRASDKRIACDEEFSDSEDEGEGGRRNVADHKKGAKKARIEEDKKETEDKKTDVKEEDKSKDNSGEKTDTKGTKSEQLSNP

Take `CCNNC(=O)c1ccc(CN2c3ccccc3C=Cc3ccncc32)cc1`: the IC50 (usually the concentration needed to halve the response being measured) in data set [1] is greater than 10 µM; in data set [3] it was 25.6 µM. Further, the Activity result in data set [2] is listed as “Toxic”. The clearance (commonly a measure of how efficiently the substance is removed, as volume per time) at 24 h in [4] is 1.84 L/h/kg. For the same molecule, in [5], the distribution volume (Vd) (usually a proportionality between amount in the body and measured concentration, not a real space) at 24 h was found to be 3.51 L/kg.
In the case of `CCNNC(=O)c1cc(F)c(CN2c3ccccc3C=Cc3ccncc32)c(F)c1`, the IC50 in [6], in [7] and in data set [8] was greater than 10 µM each time.
Take `CCNNC(=O)c1cc(F)c(CN2c3ccccc3Sc3cccnc32)cc1F`: the IC50 in data set [6], in data set [7] and in data set [8] was greater than 10 µM each time.
Turning to `CCNNC(=O)c1cc(F)c(CN2c3ccccc3C=Cc3ccncc32)cc1F`, the half-maximal inhibitory concentration (IC50) in data set [6] was greater than 10 µM; in [7], greater than 10 µM; in data set [8], 7.04 µM; in [9], greater than 10 µM; in [10], greater than 10 µM; in data set [11] it was greater than 10 µM. Besides, the IC50 in data set [12], in data set [13], in data set [1] and in [14] was greater than 10 µM throughout.
As to `CCNNC(=O)c1ccc(CN2c3ccccc3C=Cc3ccncc32)c(F)c1`, the IC50 was 8.74 µM in [6]; greater than 10 µM in [7]; 3.75 µM in data set [8]; greater than 10 µM in data set [9]; greater than 10 µM in data set [10]; greater than 10 µM in data set [11]. Also, the IC50 in [12] was greater than 10 µM; in data set [13], 2.27 µM; in data set [1], greater than 10 µM; in [14] it was greater than 10 µM.
As for `O=C(NNCCF)c1ccc(CN2c3ccccc3C=Cc3ccncc32)cc1`, the IC50 in data set [6] was greater than 10 µM; in [7] it was greater than 10 µM; in [8], 6.37 µM.
As for `CCNNC(=O)c1cc(F)c(Cn2c3ccccc3c3ccccc32)cc1F`, the IC50 in data set [6], in data set [7] and in data set [8] was greater than 10 µM throughout.
As for `CCNNC(=O)c1cc(F)c(CN2c3ccccc3C=Cc3ccccc32)cc1F`, the half-inhibitory concentration (IC50) in data set [6], in data set [7] and in data set [8] was greater than 10 µM each time.
`CCNNC(=O)c1cc(F)c(Cn2c3ccccc3c3cccnc32)cc1F`: the IC50 in [6], in data set [7] and in data set [8] was greater than 10 µM throughout.
For the molecule `CCNNC(=O)c1cc(F)c(CNc2cccc3cccnc23)cc1F`, the IC50 in data set [6], in data set [7] and in data set [8] was greater than 10 µM throughout.
Take `CCNNC(=O)c1ccc(CN2c3ccccc3C=Cc3ccncc32)cc1F`: the 50% inhibitory concentration (IC50) was greater than 10 µM in data set [6], greater than 10 µM in [7] and 1.79 µM in [8].
Regarding `O=C(CCCCCCNC(=O)c1cnc(N(c2ccccc2)c2ccccc2)nc1)NO` [RICOLINOSTAT], the Activity result in [15] is “Toxic”.
